# Data as given in US7402575B2, “Methods of treating inflammation” (priority 2003, dated 2008).
# Entries after “also recorded” stand apart in the source; their conditions may differ.
# Key:
# [1] = system: Datura stramonium lectin; experiment: Inhibition by TAC of lectin-induced depression of isometric tension in right ventricular trabecular preparation; type: cell-based, dog; conditions: TAC 10^−4M pre-treatment
# Description: After baseline tension was determined, either the lectin or placebo was placed into respective organ baths. The concentrations of the lectins used were 10^−8M, 10^−7M, and 10^−6M based on the concentration of lysozyme found in sepsis that averaged approximately 10^−8M. In the case of Datura stramonium lectin, moreover, the effect of TAC on inhibiting the myocardial depression caused by this lectin was also examined. […] Measurements were obtained at 5 minute intervals. The changes in isometric tension measured from baseline were compared between the lectin treated and placebo preparations.
# Lectins are nonenzymatic proteins that bind to carbohydrates and can be classified by their specificity for a particular sugar or polysaccharide (42). […] After baseline tension was determined, either the lectin or placebo (i.e. KH) was placed into respective organ baths in which the concentrations of the lectins used were similar to those described for Lzm-S. In the case of DSL, moreover, it was assessed whether TAC could also prevent the depression caused by this lectin.
# [2] = system: E. coli sepsis in dogs; experiment: Pretreatment Study: TAC given before E. coli sepsis, hemodynamics; type: in vivo, dog; conditions: for Arterial pH / HR / Hct / Pwp / SVR: mean±SE, n=6
# Description: In all of the studies outlined, the animals were randomized into treatment and nontreatment placebo groups (see below). The E. coli model used in these studies was identical to that previously described (6). Sepsis was induced by the intravenous infusion of 10^10 colony forming units of live E. coli (designation 011:B4). The bacteria were suspended in normal saline solution and were given over 0.5 hour. A constant infusion of approximately 5×10^9 colony forming units/hour of E. coli was then maintained for the remainder of the experiment.
# The animals (16-24 kg) were initially anesthetized with thiopental sodium (20 mg/kg, intravenously) and constantly infused with sufentanil citrate (1 ug/min) and midazolam (5 ug/kg/min) (33). Drug rates were adjusted as required to abolish the palpebral reflex. The animals were placed in the supine position; the trachea was intubated with an endotracheal tube; and the lungs were mechanically ventilated at a tidal volume of 20 ml/kg. The ventilator rate was initially set to maintain blood pH at approximately 7.35 and was increased as necessary to reverse the metabolic acidosis that developed over the course of the study. Approximately 100% oxygen was inspired, so that hypoxemia would not affect the results of the study.
# Under sterile conditions, the right jugular vein was percutaneously cannulated with an introducer (Arrow International, Reading, Pa.). A thermister tipped catheter was advanced from the jugular vein into the pulmonary artery to measure mean pulmonary arterial pressure (Ppa), mean pulmonary capillary wedge pressure (Pwp), mean right atrial pressure (Pra), thermodilution cardiac output (CO, Columbus Instruments, OH), and to obtain mixed venous oxygen blood samples. Another introducer was placed into the left jugular vein for administration of intravenous saline solution and the treatment or placebo drug (see below). A polyethylene catheter was also percutaneously placed into the femoral artery to measure mean blood pressure (MAP), and to obtain samples of blood for blood gas analysis, blood hematocrit (Hct), lactate concentrations, and blood cultures in some cases. Lactate was measured by an automated lactate dehydrogenase based assay (34) and was performed only in ETS and LTS because of equipment difficulties in the Pretreatment Study.
# All catheters were connected to transducers (Cobe Laboratories), were referenced relative to the left atrium and were connected to a chart recorder (Astro-Med, W Warwick, R.I.). Heart rate (HR) was measured from the recorder tracing. Stroke-volume (SV) was calculated as CO/HR. Systemic vascular resistance (SVR) was calculated from [(MAP-Pra)/CO]×80. At each measurement interval (see below), a full set of measurements included MAP, CO, Ppa, Pra, Pwp, Hct, HR, SV, and arterial and mixed venous blood samples.
# In the analysis, stroke work (SW) was the primary index of cardiac performance and the primary hemodynamic endpoint chosen in the in vivo studies (35,18) (see Discussion). At constant preload, SW reflects both the decreases in afterload and the changes in contractile function that accompany sepsis. SW was determined at approximately the same Pwp at each measurement interval. The baseline Pwp usually averaged ≈8-10 mmHg, and normal saline solution was given as necessary to maintain Pwp constant over the experimental period. SW was calculated from SV (MAP-Pwp).
# Pretreatment Study. In the Pretreatment Study, TAC was given before the bacteria were infused. Based on previous studies, it takes approximately 3 to 4 hours of constant bacteremia in order for myocardial depression to develop in this model (6,18). A three to five hour course of bacteremia was therefore considered necessary to determine if TAC could block the decline in SW observed at this interval. […]
# [3] = immediately after TAC infusion, before sepsis
smiles,measurement,setting,value
"CC(=O)N[C@H]1[C@H](O[C@H]2[C@H](O)[C@@H](NC(C)=O)C(O)O[C@@H]2CO)O[C@H](CO)[C@@H](O[C@@H]2O[C@H](CO)[C@@H](O)[C@H](O)[C@H]2NC(C)=O)[C@@H]1O (some centres unmarked) [TAC, N,N′,N″ triacetylglucosamine]",Effect of TAC on myocardial depression caused by Datura stramonium lectin,[1],markedly attenuated; also recorded: could be reversed by pre-treatment with TAC; also recorded: blocked the isometric depression
same,"CO after pretreatment, before sepsis",[2],no significant effect on CO
same,CO at the 3 h period vs baseline,[2],CO increased further at the 3 h period
same,"MAP after treatment, before sepsis",[2],no effect on baseline MAP
same,MAP at the 5 hour period vs nontreated group,[2],significantly prevented the decrease in MAP; also recorded: significant increases
same,"SV, change between baseline and 5 h vs nontreated group",[2],significantly different between the treated and nontreated groups; also recorded: significant increases
same,"SW, change between baseline and 5 h vs nontreated group",[2],significantly different between the treated and nontreated groups; also recorded: significant increases
same,Arterial pH,[2]; 3 h postsepsis,7.25 ± .001
same,HR,[2]; 3 h postsepsis,105 ± 5 beats/min
same,Hct,[2]; 3 h postsepsis,28 ± 2%
same,Pwp,[2]; 3 h postsepsis,9 ± .9 mmHg
same,SVR,[2]; 3 h postsepsis,1272 ± 221 dynes s cm^−5
same,Arterial pH,[2]; 5 h postsepsis,7.22 ± 0.1
same,HR,[2]; 5 h postsepsis,90 ± 5 beats/min
same,Hct,[2]; 5 h postsepsis,26 ± 3%
same,Pwp,[2]; 5 h postsepsis,9.6 ± .9 mmHg
same,SVR,[2]; 5 h postsepsis,1504 ± 249 dynes s cm^−5
same,Arterial pH,[2]; baseline before TAC,7.35 ± .01
same,HR,[2]; baseline before TAC,74 ± 11 beats/min
same,Hct,[2]; baseline before TAC,33 ± 1%
same,Pwp,[2]; baseline before TAC,9.3 ± .8 mmHg
same,SVR,[2]; baseline before TAC,2472 ± 320 dynes s cm^−5
same,Arterial pH,[2]; [3],7.28 ± .01
same,HR,[2]; [3],78 ± 5 beats/min
same,Pwp,[2]; [3],10.4 ± 1 mmHg
same,SVR,[2]; [3],1872 ± 320 dynes s cm^−5
